Data reported in PMC2912403 (Journal of medicinal chemistry, 2010).
“Also recorded” adds a separate entry of the source.

How the values were obtained:
[1] = system: κ agonist U50,488-induced diuresis; test: Antagonism of U50,488-induced diuresis in rats; format: in vivo, male Sprague-Dawley rats; details: for antagonism of U50,488-induced diuresis (urine output), week 0: s.c., first 5 h after dosing, U50,488 10 mg/kg; for antagonism of U50,488-induced diuresis (urine output), week 1: single s.c. dose at week 0, no further dosing
[2] = system: κ agonist U50,488-induced diuresis; details: antagonism of U50,488-induced diuresis; cited from earlier work

Row | Structure (SMILES) | antagonism of U50,488-induced diuresis (urine output), week 0 [1] | antagonism of U50,488-induced diuresis (urine output), week 1 [1] | duration of κ antagonist activity [2] | antagonism of the diuretic effects of U50,488 at individual doses ([1]; 10 and 30 mg/kg s.c., week 0, Dunnett's test vs U50,488) | duration of activity as antagonist of U50,488-induced diuresis ([1]; single s.c. dose)
1 | CC(C)[C@@H](CN1CC[C@@](C)(c2cccc(O)c2)[C@@H](C)C1)NC(=O)[C@H]1Cc2ccc(O)cc2CN1 [Compound 3, (3R)-7-Hydroxy-N-[(1S)-1-{[(3R,4R)-4-(3-hydroxyphenyl)-3,4-dimethyl-1-piperidinyl]methyl}-2-methylpropyl)-1,2,3,4-tetrahydro-3-isoquinolinecarboxamide, reference compound] | dose-related antagonism | continued to show dose-related antagonism | – | – | –
2 | Oc1ccc2c3c1O[C@H]1c4[nH]c5c(c4C[C@@]4(O)[C@@H](C2)N(CC2CC2)CC[C@]314)C[C@@]1(O)[C@H]2Cc3ccc(O)c4c3[C@@]1(CCN2CC1CC1)[C@H]5O4 [Compound 1, norBNI] | – | – | up to 3 weeks | – | –
3 | CC(C)[C@@H](CN1CC[C@@](C)(c2cccc(O)c2)[C@@H](C)C1)NC(=O)[C@@H]1CCc2cc(O)ccc2C1 [Compound 7a, 6-Hydroxy-1,2,3,4-tetrahydro-naphthalene-2(+)-carboxylic acid-{1-[4-(3-hydroxyphenyl)-(3R,4R)-trans-dimethyl-piperidinylmethyl]-(2S)-methylpropyl}amide] | antagonized selective κ agonist U50,488-induced diuresis; also recorded: dose-related antagonism | did not show any κ antagonist activity after one week; also recorded: antagonism of U50,488 could no longer be detected | – | significant antagonism | less than 1 week
